The record followed here is PMC9437215, “Synthesis and antibacterial activity evaluation of N (7) position-modified balofloxacins” (Frontiers in Chemistry, 2022).

≈ marks a conversion by molar mass, not a printed value. Entries after “also recorded” stand apart in the source; their conditions may differ. Where two headings read alike, the source gives them in different places. Bounds are passed on as bounds.

In series [1] the test system is MRSA. The series can be described thus: MIC and MBC determinations in vitro, MRSA. The note with it: MRSA clinical isolate; for MIC: 24 h culture; for MBC: solid medium 24 h, read-out: MBC. It is filed as cell-based. The procedure:
(§1) The three strains of MRSA, P. aeruginosa, and E. coli used in this experiment were from clinical isolates, which were provided by the People’s Liberation Army 304 Hospital.
(§2) To evaluate the antibacterial activities of newly synthesized N (7) position modified fluoroquinolones, the minimum inhibitory (MIC) and bactericidal (MBC) concentrations of these compounds toward bacteria were measured.

Series [2] has as its system P. aeruginosa. The series is described as follows: MIC and MBC determinations in vitro, P. aeruginosa. It is filed as cell-based. The note with it: P. aeruginosa clinical isolate; for MIC: 24 h culture; for MBC: solid medium 24 h. Here is the method: as §1, §2
For series [3], the system named is E. coli. The series is described as follows: MIC and MBC determinations in vitro, E. coli. The note with it: Escherichia coli, E. coli clinical isolate; for MIC: 24 h culture; for MBC: solid medium 24 h. It is filed as cell-based. The procedure:
as §1, §2

Series [4] has as its system MRSA. The series can be described thus: Time-dependent antibacterial effects in vitro. It counts as cell-based. The conditions noted are these: for antibacterial activity in early and late stages of the exponential growth phase: 10 × MIC; for log10 CFU after the first 8 h: early exponential phase, start log10 CFU 5.5, 10 × MIC. The procedure:
In order to further verify the antibacterial effect of the representative compound 2-e, time-dependent bactericidal activity of 2-e against MRSA was determined. This study referred to the reported methods ([Ling et al., 2015]). MRSA was cultured overnight in LB liquid and the bacterial solution at 10^9 CFU/ml tested on the machine was diluted at 1:10,000 with LB liquid medium and cultured at 37°C, 180 rpm. […] Time-dependent bacterial colonies were evaluated at 4 or 8 h intervals as follows: 100 μL of the mixture at the current time point was taken and centrifuged at 10,000 rpm for 2 min, and the pellet formed was dispersed with PBS, which was diluted by the ten-fold dilution method. 100 μL of bacterial dilution was evenly spread on LB solid medium at 37°C for 24 h. The colonies counted, according to national standards, accounted for the drug’s time-dependent antibacterial results. The same experimental operation was repeated three times independently.

A short description of series [5]: Hemolytic activity. It is filed as cell-based, rabbit. The conditions noted are these: male, New Zealand white, rabbit, red cell suspension from rabbit blood; even at high concentrations (> 10^5 × MIC), 37°C, 24 h; read-out: hemolysis rate. The procedure:
(§3) The animal experiment was approved by the Laboratory Animal Management Committee/Laboratory Animal Welfare Ethics Committee, Institute of Radiation Medicine, Chinese Academy of Medical Sciences (No. IRM-DWLL-2019153). Hemolysis anemia is one of the major adverse reactions of antibiotics. To assess the blood compatibility of N (7) position modified balofloxacin, the hemolytic activity of 2-e was tested. Fresh rabbit blood, obtained from the ear vein of a male New Zealand white rabbit, was diluted at a ratio of 1:20 in volume with PBS, centrifuged and resuspended in PBS at 1,000 rpm for 5 min to form an experimental red cell suspension. 500 μL drug 2-e solution and equal volumes of blood suspension were mixed in which the final drug concentration was 500, 250, 125, 62.5, 31.25, 15.62, 7.81, 3.91, 1.95, and 0.98 μg/ml, respectively, these mixtures were incubated at 37°C for 24 h. The positive control group was an equal volume of diluted blood cells mixed with an equal volume of 0.5% Triton X-100. The negative control group was mixed with an equal volume of PBS and diluted blood cells. After incubation, the mixture in a series of centrifuge tubes was centrifuged under the same conditions, and 200 μL of the supernatant was aspirated and transferred to a 96-well plate. The release of hemoglobin from the main contents was measured at A405nm using a microplate reader (Thermo, Varioskan Flash 3001, United States). Each data were from the triplicate experiments. The percentage of hemolysis in the hemolysis test was calculated according to the following formula: %Hemolysis=(A405 test sample−A405 negative control)/(A405 positive control−A405 negative control).

Series [6] concerns MRSA cells. The series is described as follows: Cell wall damage monitored by atomic force microscopy (AFM). It counts as cell-based. The note with it: 10 μM, 37°C, 30 min. Here is the method: To observe the structural changes in the bacterial surface after the administration of balofloxacin derivative 2-e, atomic force microscope assay was performed. The bacterial suspension was diluted with LB liquid medium to 10^7 CFU/ml. The bacterial solution and the drug solution were mixed in an equal volume so that the concentration of 1e and 2-e was 10 μM in the final solution, respectively. And after mixing, it was incubated at 37°C for 30 min, together with the control group in the same way. After that, the sample was centrifuged at 9,000 rpm for 5 min and the supernatant was discarded, while the precipitate was washed twice with physiological saline in the same volume and centrifuged at 9,000 rpm for 5 min. Finally, the bacterial sample, prepared by dispersion in the same volume of physiological saline solution, was dropped onto the surface of the mica plate (about 0.5 cm^2), dried naturally at ambient temperature, and scanned by an atomic force microscope.

Series [7] concerns MRSA, P. aeruginosa, and E. coli. The series can be described thus: MIC and MBC values stated over the three strains together. It counts as cell-based. The conditions noted are these: bound over MIC and MBC, converted to μmol/L; read-out: MIC and MBC. The procedure: as §1, §2
Series [8] concerns rabbit red cell suspension. The series can be described thus: Hemolytic activity. It is filed as cell-based. Here is the method:
as §3

Series [9] in a line: Cell viability assay (MTS), 3T3. It counts as cell-based. The conditions noted are these: mouse, 3T3 cells; 3T3, 100 μmol/L, 48 h. Here is the method:
(§4) To investigate the biocompatibility of the synthesized balofloxacin derivative, the cytoxicity of 2-e on human normal cells (3T3, L-02) and tumor cells (BEL-7402, H520, A549, and MCF-7) was studied. As an experimental example human liver cells (L-02) growing in the log phase, were plated in the 96-well plate at a density of 5000 cells/well. The cells were cultured at 37°C for 24 h under 5% CO2 medium. Then different concentrations of 1e and 2-e were added, the L-02 cells were cultured at 37°C for 48 h under a 5% CO2 atmosphere. Then the medium was aspirated, 100 μL of serum-free medium and 20 μL of MTS were added into each well, and L-02 was incubated at 37°C for 1 h under a 5% CO2 atmosphere. After that, the absorbance of the solutions at 490 nm was obtained using a microplate reader and calculated cell survival rate according to the following formula: Cell survive rate(%)=(ODtest−ODblank)/(ODcontrol−ODblank)×100%.

Series [10] concerns 3T3. The series is described as follows: Cell viability assay (MTS), 3T3. It is filed as cell-based. The note with it: 3T3. The procedure:
as §4

The nature of series [11]: Cell viability assay (MTS), L-02. It is filed as cell-based, human. The conditions noted are these: human, L-02 cells (normal liver cells); L-02, 100 μmol/L, 48 h. Here is the method: as §4
In series [12] the test system is L-02. The series is described as follows: Cell viability assay (MTS), L-02. The note with it: L-02. It is filed as cell-based, human. The procedure:
as §4

Series [13] can be described thus: Cell viability assay (MTS), BEL-7402. It is filed as cell-based, human. The conditions noted are these: human, BEL-7402 tumor cells; BEL-7402, 100 μmol/L, 48 h. Here is the method:
as §4

The test system of series [14] is BEL-7402. The series can be described thus: Cell viability assay (MTS), BEL-7402. It counts as cell-based, human. The conditions noted are these: BEL-7402. The procedure:
as §4

Series [15] is described as follows: Cell viability assay (MTS), H520. It is filed as cell-based, human. The note with it: human, H520 tumor cells; H520, 100 μmol/L, 48 h. The procedure: as §4
The test system of series [16] is H520. The series is described as follows: Cell viability assay (MTS), H520. It counts as cell-based, human. The conditions noted are these: H520. The procedure:
as §4

Series [17] can be described thus: Cell viability assay (MTS), A549. It is filed as cell-based, human. The conditions noted are these: human, A549 tumor cells; A549, 100 μmol/L, 48 h. Here is the method:
as §4

In series [18] the test system is A549. The series is described as follows: Cell viability assay (MTS), A549. It is filed as cell-based, human. The note with it: A549. Here is the method:
as §4

A short description of series [19]: Cell viability assay (MTS), MCF-7. It counts as cell-based, human. The conditions noted are these: human, MCF-7 tumor cells; MCF-7, 100 μmol/L, 48 h. The procedure:
as §4

In series [20] the test system is MCF-7. The series is described as follows: Cell viability assay (MTS), MCF-7. It is filed as cell-based, human. The note with it: MCF-7. The procedure: as §4
[21] abbreviates: Staphylococcus aureus, MRSA, 24 h, read-out: MIC.
[22] abbreviates: Staphylococcus aureus, MRSA, 24 h.
[23] abbreviates: Pseudomonas aeruginosa, read-out: MIC.
[24] abbreviates: Pseudomonas aeruginosa, read-out: MBC.

Broadly, the MIC is the smallest concentration in the dilution series that meets the test's criterion for growth inhibition. In general, MBC refers to the smallest concentration meeting the test's criterion for killing. Consider `CNC1CCCN(c2c(F)cc3c(=O)c(C(=O)O)cn(C4CC4)c3c2OC)C1` (stereo not drawn) [Compound 1e, balofloxacin], for which the MIC in series [1] (setting [21]), in [2], in series [2] (setting [23]) and in [3] was 0.078 µg/mL (≈ 0.2 µM) each time. Further, the MBC in [1] (setting [22]), in series [2], in series [2] (setting [24]) and in series [3] was 0.156 µg/mL (≈ 0.401 µM) each time. Moreover, in [4] (MRSA), the “antibacterial activity in early and late stages of the exponential growth phase” value is “good antibacterial activity”. For the same compound, the “log10 CFU after the first 8 h” value in series [4] is listed as 0. Further, the hemolysis at 24 h in [5] was no more than 5%. Also, in series [6], the “structural change of MRSA cells in AFM image” value is “ruptured and there was an outflow of cellular contents”.
For orientation: viability means the share of living cells, or the viability signal relative to a control. Low readings indicate more harm to the cells, high ones less harm to the cells. Broadly, the melting point is the temperature of the solid-liquid transition. Regarding `COc1c(N2CCCC(N(C)C(C)=O)C2)c(F)cc2c(=O)c(C(=O)O)cn(C3CC3)c12` (stereo not drawn) [Compound 2-e, 1-Cyclopropyl-6-fluoro-8-methoxy-7-(3-(N-methylacetamido)piperidin-1-yl)-4-oxo-1,4-dihydroquinoline-3-carboxylic acid], the melting point was in the range of 201.6 to 202.3 °C. The MIC in series [1] stood at 0.0195 µg/mL (≈ 0.0452 µM). In addition, the MIC in series [1] (setting [21]) lay within 0.0195 to 0.039 µg/mL (≈ 0.0452 to 0.0904 µM). The minimal bactericidal concentration (MBC) in series [1] (setting [22]) amounted to 0.039 µg/mL (≈ 0.0904 µM). Also, in series [2], the MIC is 0.039 µg/mL (≈ 0.0904 µM) and the minimum bactericidal concentration (MBC) stood at 0.078 µg/mL (≈ 0.181 µM). For the same compound, the MIC in series [2] (setting [23]) is 0.039 µg/mL (≈ 0.0904 µM). Besides, the minimal bactericidal concentration (MBC) in series [2] (setting [24]) turned out to be 0.078 µg/mL (≈ 0.181 µM). In series [3], this compound gave a minimal inhibitory concentration (MIC) of 2.5 µg/mL (≈ 5.79 µM) and a minimum bactericidal concentration (MBC) of 5 µg/mL (≈ 11.6 µM). In addition, in [7], the MBC was less than 12 µM. Besides, in [4] (MRSA), the “antibacterial activity in early and late stages of the exponential growth phase” value is given as “good antibacterial activity”; the “time-dependent antibacterial effect, early logarithmic growth phase” value was “bactericidal effects occurred”; the “time-dependent antibacterial effect, late logarithmic growth phase” value is reported as “bacterial inhibition occurred”. Further, the “log10 CFU after the first 8 h” value in series [4] was 0. For the same compound, the hemolysis at 24 h in series [5] was no more than 5%. For the same compound, the “hemolytic activity” value in series [8] was “not hemolytic”. Besides, in series [9], the viability at 48 h, 100 μmol/L is no less than 80%. Further, the “toxicity toward cell line” value in series [10] is “low toxicity”. In series [11], this compound showed a viability at 48 h, 100 μmol/L of no less than 80%. The “toxicity toward cell line” value in series [12] was “low toxicity; also recorded: did not show toxicity”. The viability at 48 h, 100 μmol/L in [13] is no less than 80%. The “toxicity toward cell line” value in series [14] is recorded as “low toxicity”. The compound further registered a viability at 48 h, 100 μmol/L in [15] of no less than 80%. Also, the “toxicity toward cell line” value in series [16] is given as “low toxicity”. In addition, the viability at 48 h, 100 μmol/L in [17] is no less than 80%. Also, in series [18], the “toxicity toward cell line” value is “low toxicity”. Also, the viability at 48 h, 100 μmol/L in series [19] is no less than 80%. In addition, in series [20], the “toxicity toward cell line” value was “low toxicity”. Also, the “structural change of MRSA cells in AFM image” value in series [6] is “could effectively destroy the membrane and wall of MRSA cells; also recorded: complete discharge of their contents and substantial fragmentation”.
